These results are taken from patent US20080004276A1, “Method for treating non-hodgkin's lymphoma” (priority 2006, published 2008).

Structures are written as SMILES. Entries after “also recorded” stand apart in the source; their conditions may differ. Bounds are passed on as bounds.

In one data set the test system is Her2. The data set can be described thus: IC50 range for inhibition of Her2 degradation (Table 8). Conditions: Homo sapiens. Type of data set: cell-based.
The subject of another data set is MDA-MB-435S. Briefly: MDA-MB-435S nude mouse xenograft model. It is filed as in vivo. Conditions: 300 mg/kg IP, 5 times per week for 3 weeks, nude mice; FIG. 4. On the procedure:
FBS was obtained from Sigma-Aldrich Corp. (St. Louis, Mo., USA), and all other reagents were obtained from Invitrogen Corp. (Carlsbad, Calif., USA). Approximately 4-5×10(6) cells that had been cryopreserved in liquid nitrogen were rapidly thawed at 37° C. and transferred to a 175 cm^2 tissue culture flask containing 50 ml of growth media and then incubated at 37° C. in a 5% CO2 incubator. The growth media was replaced every 2-3 days until the flask became 90% confluent, typically in 5-7 days. To passage and expand the cell line, a 90% confluent flask was washed with 10 ml of room temperature phosphate buffered saline (PBS) and the cells were disassociated by adding 5 ml 1× Trypsin-EDTA (Invitrogen) and incubating at 37° C. until the cells detached from the surface of the flask. To inactivate the trypsin, 5 ml of growth media was added and then the contents of the flask were centrifuged to pellet the cells. The supernatant was aspirated and the cell pellet was resuspended in 10 ml of growth media and the cell number determined using a hemocytometer. […]
Six to eight week old, female Crl:CD-1-nuBR (nude) mice were obtained from Charles River Laboratories (Wilmington, Mass., USA). […] Tumor volumes (V) were calculated by caliper measurement of the width (W), length (L) and thickness (T) of tumors using the following formula: V=[…]×(L×W×T). […]

Consider `CCc1cc(-c2nnc(S)n2-c2cccc3ccccc23)c(O)cc1O` [Compound 49, 3-(2,4-Dihydroxy-5-ethyl-phenyl)-4-(naphthalen-1-yl)-5-mercapto-triazole], for which, in the data set on Her2, the IC50 (as a rule, the point on the concentration scale where inhibition reaches its midpoint) is under 3 µM. Besides, in the data set on MDA-MB-435S, the “toxicity (effect on body weights)” value was “not associated with significant toxicity; also recorded: not toxic”.
